In the NIST ThermoML archive (doi:10.1021/je7000446):

Assay: relative permittivity at various frequencies (dimensionless)
Conditions: Fluid (supercritical or subcritical phases), Frequency=0.06 MHz, Parallel plate capacitor

COC(F)(F)C(F)(F)F [methyl pentafluoroethyl ether]
Conditions	relative permittivity
312.9 K, 1500 kPa	6.94
312.9 K, 3200 kPa	7
312.9 K, 6100 kPa	7.08
312.9 K, 8300 kPa	7.14
312.9 K, 10400 kPa	7.2
312.9 K, 12500 kPa	7.25
312.9 K, 14400 kPa	7.29
312.9 K, 16500 kPa	7.34
312.9 K, 18300 kPa	7.37
312.9 K, 26200 kPa	7.51
312.9 K, 27800 kPa	7.53
318 K, 1500 kPa	6.78
318 K, 3200 kPa	6.85
318 K, 6300 kPa	6.95
318 K, 8300 kPa	7.01
318 K, 10400 kPa	7.06
318 K, 12400 kPa	7.11
318 K, 14100 kPa	7.15
318 K, 16400 kPa	7.19
318 K, 18300 kPa	7.22
318 K, 20400 kPa	7.27
318 K, 22200 kPa	7.29
318 K, 23800 kPa	7.31
323.4 K, 2000 kPa	6.65
323.4 K, 3200 kPa	6.69
323.4 K, 4400 kPa	6.73
323.4 K, 6600 kPa	6.79
323.4 K, 8300 kPa	6.84
323.4 K, 10100 kPa	6.89
323.4 K, 12200 kPa	6.94
323.4 K, 14000 kPa	7
323.4 K, 16000 kPa	7.05
323.4 K, 18000 kPa	7.09
323.4 K, 20000 kPa	7.12
323.4 K, 22200 kPa	7.16
323.4 K, 24400 kPa	7.2
323.4 K, 26300 kPa	7.24
323.4 K, 28400 kPa	7.27

CC(F)(F)F [1,1,1-trifluoroethane]
Conditions	relative permittivity
302.8 K, 1600 kPa	9.28
302.8 K, 4000 kPa	9.44
302.8 K, 6200 kPa	9.56
302.8 K, 8200 kPa	9.67
302.8 K, 10200 kPa	9.77
302.8 K, 12300 kPa	9.86
302.8 K, 16200 kPa	10.02
302.8 K, 18500 kPa	10.1
302.8 K, 20100 kPa	10.16
302.8 K, 22000 kPa	10.24
302.8 K, 24200 kPa	10.31
302.8 K, 26300 kPa	10.38
302.8 K, 28300 kPa	10.44
302.8 K, 30700 kPa	10.51
313.2 K, 1700 kPa	8.61
313.2 K, 2700 kPa	8.69
313.2 K, 4200 kPa	8.82
313.2 K, 6300 kPa	8.96
313.2 K, 8000 kPa	9.05
313.2 K, 8800 kPa	9.12
313.2 K, 14200 kPa	9.39
313.2 K, 16300 kPa	9.49
313.2 K, 18400 kPa	9.58
313.2 K, 20400 kPa	9.67
313.2 K, 21800 kPa	9.73
313.2 K, 24200 kPa	9.81
313.2 K, 26100 kPa	9.87
313.2 K, 28400 kPa	9.9
313.2 K, 30300 kPa	9.95
313.2 K, 31600 kPa	9.98
322.8 K, 2400 kPa	8.08
322.8 K, 4500 kPa	8.27
322.8 K, 6500 kPa	8.43
322.8 K, 8400 kPa	8.56
322.8 K, 10300 kPa	8.68
322.8 K, 12100 kPa	8.79
322.8 K, 14300 kPa	8.89
322.8 K, 16300 kPa	8.98
322.8 K, 18300 kPa	9.07
322.8 K, 20200 kPa	9.16
322.8 K, 22300 kPa	9.24
322.8 K, 24400 kPa	9.32
322.8 K, 26200 kPa	9.38
322.8 K, 27900 kPa	9.43
322.8 K, 28800 kPa	9.46
322.8 K, 31000 kPa	9.49
333 K, 1500 kPa	7.35
333 K, 2600 kPa	7.45
333 K, 4400 kPa	7.66
333 K, 6300 kPa	7.84
333 K, 8400 kPa	8.01
333 K, 10300 kPa	8.14
333 K, 12400 kPa	8.26
333 K, 14400 kPa	8.38
333 K, 16300 kPa	8.48
333 K, 18300 kPa	8.58
333 K, 20100 kPa	8.66
333 K, 21100 kPa	8.7
333 K, 22400 kPa	8.73
333 K, 24100 kPa	8.8
333 K, 26000 kPa	8.87
333 K, 27400 kPa	8.93
333 K, 29300 kPa	8.99
343.4 K, 2200 kPa	6.66
343.4 K, 3000 kPa	6.79
343.4 K, 4000 kPa	6.95
343.4 K, 5000 kPa	7.06
343.4 K, 6200 kPa	7.2
343.4 K, 8100 kPa	7.4
343.4 K, 9200 kPa	7.47
343.4 K, 10400 kPa	7.58
343.4 K, 12300 kPa	7.71
343.4 K, 14200 kPa	7.83
343.4 K, 16200 kPa	7.94
343.4 K, 18200 kPa	8.04
343.4 K, 20300 kPa	8.14
343.4 K, 22200 kPa	8.22
343.4 K, 24200 kPa	8.31
343.4 K, 26000 kPa	8.37
343.4 K, 28000 kPa	8.45
343.4 K, 29500 kPa	8.5
353.4 K, 2600 kPa	6.05
353.4 K, 4600 kPa	6.39
353.4 K, 6400 kPa	6.65
353.4 K, 8100 kPa	6.84
353.4 K, 10000 kPa	6.99
353.4 K, 12200 kPa	7.15
353.4 K, 14400 kPa	7.29
353.4 K, 16400 kPa	7.41
353.4 K, 18300 kPa	7.52
353.4 K, 20200 kPa	7.6
353.4 K, 22200 kPa	7.7
353.4 K, 24400 kPa	7.78
353.4 K, 26400 kPa	7.86
353.4 K, 28600 kPa	7.95
363.8 K, 3600 kPa	5.46
363.8 K, 4300 kPa	5.73
363.8 K, 6100 kPa	6.09
363.8 K, 8200 kPa	6.37
363.8 K, 10200 kPa	6.57
363.8 K, 12200 kPa	6.74
363.8 K, 14200 kPa	6.88
363.8 K, 16200 kPa	7.01
363.8 K, 18200 kPa	7.12
363.8 K, 20300 kPa	7.22
363.8 K, 22200 kPa	7.31
363.8 K, 24300 kPa	7.41
363.8 K, 26000 kPa	7.48
363.8 K, 28200 kPa	7.56
363.8 K, 30000 kPa	7.63
363.8 K, 31200 kPa	7.66
372.9 K, 4000 kPa	4.66
372.9 K, 6300 kPa	5.55
372.9 K, 8200 kPa	5.86
372.9 K, 10100 kPa	6.08
372.9 K, 12200 kPa	6.27
372.9 K, 14200 kPa	6.42
372.9 K, 16000 kPa	6.53
372.9 K, 18000 kPa	6.65
372.9 K, 20200 kPa	6.75
372.9 K, 22200 kPa	6.85
372.9 K, 24200 kPa	6.94
372.9 K, 26200 kPa	7.02
372.9 K, 28100 kPa	7.09
372.9 K, 29800 kPa	7.15
372.9 K, 30700 kPa	7.18
383.1 K, 4800 kPa	3.97
383.1 K, 5800 kPa	4.7
383.1 K, 6800 kPa	5.06
383.1 K, 8200 kPa	5.35
383.1 K, 10400 kPa	5.65
383.1 K, 12000 kPa	5.8
383.1 K, 14200 kPa	6.09
383.1 K, 16200 kPa	6.24
383.1 K, 18400 kPa	6.38
383.1 K, 20000 kPa	6.48
